Entries after “also recorded” stand apart in the source; their conditions may differ.
Legend:
OTC [1] = experiment: HSP90 or HSP70 inhibitors in primary human hepatocytes, OTC mRNA; type: cell-based; conditions: hepatocytes from Donor B, normalized to B2M
Procedure: (§1) Additional small molecules that inhibit HSP90 or HSP70 were tested in primary human hepatocytes as described in Example 2. HSP90 or HSP70 inhibitors were tested in triplicate at 0.3 μM and 3 μM. The results are shown as the fold change (mRNA FC) in the mRNA levels of OTC and CPS1 genes after treatment compared to an untreated control (DMSO) and the standard deviation (SD). In addition, a dose titration experiment was performed with selected HSP90 inhibitors. Hepatocytes were incubated with increasing concentrations of HSP90 inhibitors and the changes in OTC and CPS1 expression quantified as previously described.
(§2) HSP90 and HSP70 inhibitors were compared to confirm the role of HSP90 in modulating OTC and CPS1 expression. Hepatocytes from Donor B were incubated with various HSP90 inhibitors or an HSP70 inhibitor, Pifithrin-μ, and then harvested for mRNA quantification. OTC and CPS1 mRNA levels were normalized to B2M.

CPS1 [2] = experiment: HSP90 or HSP70 inhibitors in primary human hepatocytes, CPS1 mRNA; type: cell-based; conditions: hepatocytes from Donor B, normalized to B2M
Procedure: as §1, §2

OTC [3] = experiment: HSP90 inhibitor dose titration in hepatocytes of donors A and B, OTC mRNA normalized to B2M; type: cell-based, human; conditions: 18 hours
Procedure: as §1
(§3) Hepatocytes from two different donors (A and B) were incubated with the various concentrations of HSP90 inhibitors for 18 hours and harvested for mRNA analysis. OTC and CPS1 mRNA were normalized to house keeping gene B2M gene expression.

CPS1 [4] = experiment: HSP90 inhibitor dose titration in hepatocytes of donors A and B, CPS1 mRNA normalized to B2M; type: cell-based, human; conditions: 18 hours
Procedure: as §1, §3

Hep3B cells = experiment: Urea production in Hep3B cells, Blood Urea Nitrogen Assay Kit on spent media; type: cell-based, human; conditions: increasing concentrations from 0.03 μM
CPS1 [5] = experiment: Urea cycle gene expression in Hep3B cells, CPS1; type: cell-based, human; conditions: FIG. 31B
ARG1 [6] = experiment: Urea cycle gene expression in Hep3B cells, ARG1; type: cell-based, human; conditions: FIG. 31B
ASS1 [7] = experiment: Urea cycle gene expression in Hep3B cells, ASS1; type: cell-based, human; conditions: FIG. 31B
NAGS [8] = experiment: Urea cycle gene expression in Hep3B cells, NAGS; type: cell-based, human; conditions: FIG. 31B
HSP90 = conditions: cited from earlier work
[9] = test system: chromatin domain upstream of the OTC gene; experiment: ATAC-seq of the OTC insulated neighborhood in inhibitor-treated hepatocytes; conditions: 17 hours of inhibitor treatment
Otc [10] = experiment: EC144 in C57/B16 mice, liver Otc mRNA by qRT-PCR; type: in vivo, mouse
Procedure: (§4) The in vivo effect of EC144 was assessed.

Cps1 [11] = experiment: EC144 in C57/B16 mice, liver Cps1 mRNA by qRT-PCR; type: in vivo, mouse
Procedure: as §4

Ass1 [12] = experiment: EC144 in C57/B16 mice, liver Ass1 mRNA by qRT-PCR; type: in vivo, mouse; conditions: 5 mg/kg i.p. once daily for 4 days, FIG. 32
Procedure: as §4

[13] = EC144 in C57/B16 mice, liver As1 mRNA by qRT-PCR; type: in vivo, mouse; conditions: 5 mg/kg i.p. once daily for 4 days, FIG. 32
Procedure: as §4

Arg1 [14] = experiment: EC144 in C57/B16 mice, liver Arg1 mRNA by qRT-PCR; type: in vivo, mouse; conditions: 5 mg/kg i.p. once daily for 4 days, FIG. 32
Procedure: as §4

[15] = EC144 in C57/B16 mice, serum urea levels (Blood Urea Nitrogen Assay Kit); type: in vivo, mouse; conditions: 5 mg/kg i.p. once daily for 4 days, 5 h, 7 h or 9 h post-dose, vs vehicle
Procedure: as §4
Serum urea levels were measured using the Blood Urea Nitrogen Assay Kit (Invitrogen, Cat #EIABUN) per manufacturer's instructions. The data was plotted in GraphPad and statistical significance of the data sets determined using the Holm-Sidak method for multiple comparisons (α=0.05).

Nags [16] = conditions: mice, 5 mg/kg i.p. once daily for 4 days, FIG. 32
OTC [17] = experiment: JAK inhibitors at 0.3 and 3 μM in primary human hepatocytes, OTC mRNA fold change; type: cell-based; conditions: fold change vs DMSO
Procedure: (§5) Additional small molecules that inhibit JAK1, JAK2, JAK3, or a combination of the JAK proteins were tested in primary human hepatocytes as described in Example 2. JAK inhibitors were tested in triplicate at 0.3 μM and 3 μM. The results are shown as the fold change (mRNA FC) in the mRNA levels of OTC and CPS1 genes after treatment compared to an untreated control (DMSO) and the standard deviation (SD).

CPS1 [18] = experiment: JAK inhibitors at 0.3 and 3 μM in primary human hepatocytes, CPS1 mRNA fold change; type: cell-based; conditions: fold change vs DMSO
Procedure: as §5

Cps1 [19] = experiment: JAK1 inhibitors in C57/B16 mice, liver Cps1 mRNA by qRT-PCR; type: in vivo, mouse; conditions: i.p. once daily for 4 days, 6 hours after administration, vs control treated mice
Otc [20] = experiment: JAK1 inhibitors in C57/B16 mice, liver Otc mRNA by qRT-PCR; type: in vivo, mouse; conditions: i.p. once daily for 4 days, 6 hours after administration, vs control treated mice
Socs1 = experiment: JAK1 inhibitors in C57/B16 mice, Socs1 mRNA; type: in vivo, mouse; conditions: i.p. once daily for 4 days
[21] = mice, 5 mg/kg i.p. once daily for 4 days, FIG. 32

COc1c(C)cnc(Cn2cnc3c(Cl)nc(N)nc32)c1C [BIIB021]
OTC Expression mRNA FC (OTC [1]; 0.3 uM): 0.95
OTC Expression mRNA FC (OTC [1]; 3 uM): 3.12
CPS1 Expression mRNA FC (CPS1 [2]; 0.3 uM): 0.67
CPS1 Expression mRNA FC (CPS1 [2]; 3 uM): 2.18
OTC mRNA FC, Donor A (OTC [3]; 0.03 uM): 0.84
OTC mRNA FC, Donor B (OTC [3]; 0.03 uM): 1.24
OTC mRNA FC, Donor A (OTC [3]; 0.1 uM): 1.13
OTC mRNA FC, Donor B (OTC [3]; 0.1 uM): 4.23
OTC mRNA FC, Donor A (OTC [3]; 0.3 uM): 2.46
OTC mRNA FC, Donor B (OTC [3]; 0.3 uM): 15.30
OTC mRNA FC, Donor A (OTC [3]; 1 uM): 5.86
OTC mRNA FC, Donor B (OTC [3]; 1 uM): 9.49
OTC mRNA FC, Donor A (OTC [3]; 3 uM): 6.12
OTC mRNA FC, Donor B (OTC [3]; 3 uM): 6.59
OTC mRNA FC, Donor A (OTC [3]; 10 uM): 7.61
OTC mRNA FC, Donor B (OTC [3]; 10 uM): 7.17
CPS1 mRNA FC, Donor A (CPS1 [4]; 0.03 uM): 0.98
CPS1 mRNA FC, Donor B (CPS1 [4]; 0.03 uM): 1.05
CPS1 mRNA FC, Donor A (CPS1 [4]; 0.1 uM): 1.40
CPS1 mRNA FC, Donor B (CPS1 [4]; 0.1 uM): 1.93
CPS1 mRNA FC, Donor A (CPS1 [4]; 0.3 uM): 1.54
CPS1 mRNA FC, Donor B (CPS1 [4]; 0.3 uM): 1.95
CPS1 mRNA FC, Donor A (CPS1 [4]; 1 uM): 2.75
CPS1 mRNA FC, Donor B (CPS1 [4]; 1 uM): 1.37
CPS1 mRNA FC, Donor A (CPS1 [4]; 3 uM): 4.27
CPS1 mRNA FC, Donor B (CPS1 [4]; 3 uM): 1.13
CPS1 mRNA FC, Donor A (CPS1 [4]; 10 uM): 6.41
CPS1 mRNA FC, Donor B (CPS1 [4]; 10 uM): 1.83
urea production (Hep3B cells): dose-dependent increase; also recorded: increases
CPS1 expression in Hep3B cells (CPS1 [5]): Increases
ARG1 expression in Hep3B cells (ARG1 [6]): Increases
ASS1 expression in Hep3B cells (ASS1 [7]): Increases
NAGS expression in Hep3B cells (NAGS [8]): Increases
accessibility of previously available chromatin upstream of the OTC gene (ATAC-seq) [9]: increase in accessibility
newly accessible chromatin domain upstream of the OTC gene (ATAC-seq) [9]: newly accessible chromatin domain

COc1c(C)cnc(Cn2cc(C#CCC(C)(C)O)c3c(Cl)nc(N)nc32)c1C [EC144]
Otc expression in vivo (Otc [10]; 5 h after administration, FIG. 33A): increased
Otc expression in vivo (Otc [10]; [21]): increased
Cps1 expression over time (Cps1 [11]; 9 h after administration as compared to 5 h): greater expression
Cps1 expression in vivo (Cps1 [11]; at 5 h, 7 h, and 9 h after administration, FIG. 33B): increased
Cps1 expression in vivo (Cps1 [11]; [21]): increased
Ass1 expression in vivo (Ass1 [12]): increased
As1 expression in vivo [13]: increased
Arg1 expression in vivo (Arg1 [14]): increased
serum urea levels [15]: increased
Nags expression in vivo (Nags [16]): increased

C[C@@H]1CCN(C(=O)CC#N)C[C@@H]1N(C)c1ncnc2[nH]ccc12 [tofacitinib]
OTC mRNA FC (OTC [17]; 0.3 uM): 3.2
OTC mRNA FC (OTC [17]; 3 uM): 5.17
CPS1 mRNA FC (CPS1 [18]; 0.3 uM): 1.67
CPS1 mRNA FC (CPS1 [18]; 3 uM): 2.54
Cps1 expression in liver (Cps1 [19]): increased
Otc expression in liver (Otc [20]): increase
Socs1 mRNA expression (Socs1): decreased
